In data set [1] the target is Chymotrypsin-like elastase family member 1 (Sus scrofa, UniProt P00772). As to the kind of experiment: Enzymatic stability assessed as porcine type 4 pancreatic elastase-mediated compound hydrolysis by measuring parent compound remaining at 100 uM incubated for 1 hr by LC-MS/MS analysis. To be noted: pig, read-out: Stabilty. In kind it is ADME.
A short description of data set [2]: Enzymatic stability assessed as porcine pepsin-mediated compound hydrolysis by measuring parent compound remaining at 100 uM incubated for 1 hr by LC-MS/MS analysis. Type of data set: ADME, Sus scrofa. The following applies: pig, read-out: Stabilty.
Data set [3] concerns the target Proprotein convertase subtilisin/kexin type 9 (Homo sapiens, UniProt Q8NBP7). The experiment in a line: Inhibition of AlexaFluor647-tagged cyclic peptide binding to avi-tagged-biotinylated human PCSK9 measured after 2 hrs by Lance Streptavidin Europium based FRET assay.
The target of another data set is Chymotrypsinogen A (Bos taurus, UniProt P00766). The experiment in a line: Enzymatic stability assessed as bovine pancreatic alpha-chymotrypsin-mediated compound hydrolysis by measuring parent compound remaining at 100 uM incubated for 1 hr by LC-MS/MS analysis. In kind it is ADME. To be noted: cattle, read-out: Stabilty.
Data set [4] can be described thus: Half life in C57BL/6 mouse whole blood at 100 uM by LC-MS/MS analysis. Type of data set: ADME, tissue-based.
The nature of data set [5]: Half life in cynomolgus monkey whole blood at 100 uM by LC-MS/MS analysis. Type of data set: ADME, tissue-based, Macaca fascicularis.
The nature of data set [6]: Enzymatic stability assessed as bovine pancreatic trypsin-mediated compound hydrolysis by measuring parent compound remaining at 100 uM incubated for 1 hr by LC-MS/MS analysis. In kind it is ADME, Bos taurus. The following applies: cattle, read-out: Stabilty.
Data set [7] can be described thus: Cytotoxicity against Wistar rat isolated peritoneal cells assessed as reduction in cell viability up to 60 uM measured after 30 mins. Type of data set: cell-based. The following applies: peritoneal macrophage cell, 0.5 h.
Data set [8] is described as follows: Induction of mast cell degranulation in Wistar rat isolated peritoneal cells assessed as effect on histamine release measured after 30 mins. To be noted: for EC50: mast cell; for pEC50: Rattus norvegicus, Wistar, Mast cell, 0.5 h, read-out: EC50. Type of data set: tissue-based.
Data set [9] in a line: Protein binding in mouse plasma at 2.5 uM measured after 4 hrs by equilibrium dialysis based LC-MS/MS analysis. In kind it is ADME, cell-free. The following applies: read-out: PPB (converted). In general terms: Equilibrium dialysis compares concentrations on both sides of a semipermeable membrane.
The nature of data set [10]: AUC (0 to infinity) in C57BL/6 mouse at 1 mg/kg, iv by LC-MS/MS analysis. Set-up: route intravenous, time infinity, dose 1 mg/kg. Type of data set: ADME, organism-based. The following applies: mouse, in vivo.
Data set [11] can be described thus: Half life in C57BL/6 mouse at 1 mg/kg, iv by LC-MS/MS analysis. In kind it is ADME, organism-based. To be noted: in vivo.
Data set [12] is described as follows: Volume of distribution at steady state in C57BL/6 mouse at 1 mg/kg, iv by LC-MS/MS analysis. Type of data set: ADME, organism-based. To be noted: in vivo, read-out: Vdss.
The nature of data set [13]: AUC (0 to X) in C57BL/6 mouse at 1 mg/kg, iv by LC-MS/MS analysis. Type of data set: ADME, organism-based. On the set-up: dose 1 mg/kg. To be noted: in vivo.
The target of a further data set is PCSK9/LDLR (Homo sapiens, UniProt Q8NBP7). As to the kind of experiment: Inhibition of avi-tagged-biotinylated human PCSK9 interaction with His-tagged human LDLR EGFa domain by LANCE Ulight Streptavidin based TR-FRET assay. In kind it is protein assay. (In general: Time-resolved FRET reads energy transfer from a long-lived donor to a nearby acceptor.)

pEC50, pKi: −log10 of the molar value. Numbered stars: 1 amine (or outer) side, 2 acyl side, 3 side chain; on linkers, the order of the positions; unused ones are H or OH. Bridge positions count the residues as written; N and C are the ends. Square brackets hold non-standard residues; d marks the D form. Peptide text beside a SMILES is read from it. * marks the point of attachment. Trp(5-F) = N[C@@H](Cc1c[nH]c2ccc(F)cc12)C(=O)O; Nle(6-COOH) = N[C@@H](CCCCC(=O)O)C(=O)O; X1 = O=C(CCSCc1cccc(CSCCN[*:1])c1)[*:2]; mXylylene = c1cc(C[*:1])cc(C[*:2])c1; Asu = N[C@@H](CCCCCC(=O)O)C(=O)O; PEG4 = NCCOCCOCCOCCOCCC(=O)O; αMeP = C[C@@]1(C(=O)O)CCCN1; Orn = NCCC[C@H](N)C(=O)O; X2 = COCCOCCOCCOCCC(=O)*; Nva = CCC[C@H](N)C(=O)O; Mpa = O=C(O)CCS Some results are limits rather than exact numbers.

PCSK9/LDLR, sequence (Q8NBP7 31-152 limits assumed): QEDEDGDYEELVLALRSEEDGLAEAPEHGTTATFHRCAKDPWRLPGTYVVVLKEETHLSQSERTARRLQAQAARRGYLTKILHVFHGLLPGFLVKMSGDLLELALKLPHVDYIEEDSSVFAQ
PCSK9/LDLR, sequence (Q8NBP7 153-692 limits assumed): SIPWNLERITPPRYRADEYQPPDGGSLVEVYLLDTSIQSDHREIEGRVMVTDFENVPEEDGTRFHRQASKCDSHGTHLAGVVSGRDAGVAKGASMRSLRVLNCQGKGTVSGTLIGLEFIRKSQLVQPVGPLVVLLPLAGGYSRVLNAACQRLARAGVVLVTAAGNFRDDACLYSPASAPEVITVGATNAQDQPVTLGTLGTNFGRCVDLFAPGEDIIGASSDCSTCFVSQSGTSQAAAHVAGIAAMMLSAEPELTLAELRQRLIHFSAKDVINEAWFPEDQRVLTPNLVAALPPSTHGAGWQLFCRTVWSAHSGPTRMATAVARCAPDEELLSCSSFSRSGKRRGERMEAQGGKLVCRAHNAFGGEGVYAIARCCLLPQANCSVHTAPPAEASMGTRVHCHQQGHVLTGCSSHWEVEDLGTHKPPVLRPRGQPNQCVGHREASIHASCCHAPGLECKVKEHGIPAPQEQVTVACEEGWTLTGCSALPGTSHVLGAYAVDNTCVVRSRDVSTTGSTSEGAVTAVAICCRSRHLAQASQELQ
PCSK9/LDLR, sequence (P01130 22-860 partner limits assumed): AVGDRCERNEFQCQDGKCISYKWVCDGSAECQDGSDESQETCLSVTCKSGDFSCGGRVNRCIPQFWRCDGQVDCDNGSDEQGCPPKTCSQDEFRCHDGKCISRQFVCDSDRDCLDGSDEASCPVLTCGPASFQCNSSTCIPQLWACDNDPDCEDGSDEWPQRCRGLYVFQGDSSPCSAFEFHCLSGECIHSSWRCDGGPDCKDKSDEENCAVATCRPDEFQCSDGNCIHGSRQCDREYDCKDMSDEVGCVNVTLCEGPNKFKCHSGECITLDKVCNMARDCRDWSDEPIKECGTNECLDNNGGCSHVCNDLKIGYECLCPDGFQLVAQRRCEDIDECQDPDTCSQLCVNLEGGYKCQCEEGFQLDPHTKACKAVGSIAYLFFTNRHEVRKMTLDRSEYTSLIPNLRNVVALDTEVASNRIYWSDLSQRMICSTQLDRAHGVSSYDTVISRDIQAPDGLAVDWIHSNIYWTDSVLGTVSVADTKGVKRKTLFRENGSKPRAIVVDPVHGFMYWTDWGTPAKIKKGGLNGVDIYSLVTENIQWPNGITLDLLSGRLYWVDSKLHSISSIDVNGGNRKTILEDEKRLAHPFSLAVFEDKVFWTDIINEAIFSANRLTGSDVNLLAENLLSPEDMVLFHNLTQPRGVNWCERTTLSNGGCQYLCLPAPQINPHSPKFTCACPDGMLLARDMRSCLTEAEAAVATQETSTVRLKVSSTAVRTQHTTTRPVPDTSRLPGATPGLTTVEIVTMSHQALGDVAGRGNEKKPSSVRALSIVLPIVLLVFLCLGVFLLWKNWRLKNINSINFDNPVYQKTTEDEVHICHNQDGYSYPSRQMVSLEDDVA
Proprotein convertase subtilisin/kexin type 9, sequence (Q8NBP7 31-152 limits assumed): as the sequence (Q8NBP7 31-152 limits assumed) above
Proprotein convertase subtilisin/kexin type 9, sequence (Q8NBP7 153-692 limits assumed): as the sequence (Q8NBP7 153-692 limits assumed) above
Chymotrypsin-like elastase family member 1, sequence (P00772 whole entry): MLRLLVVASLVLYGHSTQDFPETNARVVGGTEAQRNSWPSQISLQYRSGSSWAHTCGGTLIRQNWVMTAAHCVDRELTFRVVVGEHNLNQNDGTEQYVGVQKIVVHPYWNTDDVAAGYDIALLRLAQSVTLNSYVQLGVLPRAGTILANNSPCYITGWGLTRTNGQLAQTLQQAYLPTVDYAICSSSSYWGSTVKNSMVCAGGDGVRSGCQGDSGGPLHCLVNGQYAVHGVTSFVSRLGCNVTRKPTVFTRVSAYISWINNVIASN

The pKi is −log10 of the Ki, conventionally taken in molar units. One may read the half-life as how long it takes for the measured level to halve. For the compound `COc1ccc(C[C@@H]2NC(=O)[C@H]([C@@H](C)OC)NC(=O)[C@@H]3CCC(=O)NCc4cccc(c4)C[C@H](NC(=O)[C@@H](C)NC(=O)[C@H](C)NC(=O)CCSCc4cccc(c4)CSCCNC(=O)[C@]4(C)CCCN4C2=O)C(=O)N[C@@H](Cc2c[nH]c4ccc(F)cc24)C(=O)N3C)cc1`, the remaining at 1 h, 100 µM stood at 98.8% in [1], 94.4% in [2], 95.7% at Chymotrypsinogen A and 97.6% in data set [6]. The compound further had a pKi in data set [3] of 7.97. Also, the half-life at 100 µM in data set [4] and in data set [5] was > 6 h throughout.
Turning to `COc1ccc(C[C@@H]2NC(=O)[C@H](Cc3cnc[nH]3)NC(=O)[C@H](CC(=O)O)NC(=O)[C@H](Cc3c[nH]c4ccc(F)cc34)NC(=O)[C@H](Cc3c[nH]c4ccc(F)cc34)NC(=O)[C@@H](C)NC(=O)[C@H](CNC(=O)COCCOCCN)NC(=O)CCSCc3cccc(c3)CSCCNC(=O)[C@]3(C)CCCN3C2=O)cc1`, the Activity result in data set [7] is on record as “Non-Toxic”. Moreover, in [3], the negative-log Ki (pKi) was 8.09. Besides, in [8], the EC50 result is reported as “Non-Toxic”.
Broadly, the AUC is concentration integrated over time. In general, pEC50 refers to the EC50 on a negative log10 scale, so that one unit is a factor of ten. Take `C[C@H]1NC(=O)[C@H](CCCCN)NC(=O)CCSCc2cccc(c2)CSC[C@@H](C(N)=O)NC(=O)[C@]2(C)CCCN2C(=O)[C@H](Cc2ccc(O)cc2)NC(=O)[C@H]([C@@H](C)O)NC(=O)[C@@H]2C[C@H](F)CN2C(=O)[C@H](Cc2c[nH]c3ccc(F)cc23)NC(=O)[C@H](Cc2c[nH]c3ccc(F)cc23)NC1=O`: the Activity entry in [7] was “Non-Toxic”. Further, the remaining at 1 h, 100 µM amounted to 100% in [1], 98.1% in data set [2], 100% on Chymotrypsinogen A and 95.9% in data set [6]. Also, the fraction unbound at 4 h, 2.5 µM in data set [9] is 0.0167. Also, the values for the exposure (AUC) in data set [10] and in [13] were 0.17152 µM·h and 0.171 µM·h, respectively. In addition, the pKi in [3] is 8.68. Further, in [8], the pEC50 is 5.51. In [11], this compound gave a half-life of 1.6 h. The Vd in [12] came to 0.37 L/kg. Moreover, in data set [4], the half-life at 100 µM was > 6 h.
For the compound `COc1ccc(C[C@@H]2NC(=O)[C@H](Cc3cnc[nH]3)NC(=O)[C@H](CC(=O)O)NC(=O)[C@H](Cc3c[nH]c4ccc(F)cc34)NC(=O)[C@H](Cc3c[nH]c4ccc(F)cc34)NC(=O)[C@@H](C)NC(=O)[C@H](CCCCO)NC(=O)CCSCc3cccc(c3)CSCCNC(=O)[C@]3(C)CCCN3C2=O)cc1`, the Activity result in data set [7] was “Non-Toxic”. Moreover, the negative-log Ki (pKi) was 7.41 in data set [3] and 7.10 at PCSK9/LDLR. In addition, the EC50 entry in [8] is recorded as “Non-Toxic”.
Take `C[C@@]12CCCN1C(=O)[C@H](Cc1ccc(O)cc1)NC(=O)[C@H](Cc1cnc[nH]1)NC(=O)[C@H](CC(=O)O)NC(=O)[C@H](Cc1c[nH]c3ccc(F)cc13)NC(=O)[C@H](Cc1c[nH]c3ccc(F)cc13)NC(=O)CNC(=O)[C@H](CCCCNC(=O)CCOCCOCCOCCOCCN)NC(=O)CCSCc1cccc(c1)CSC[C@@H](C(N)=O)NC2=O` ([Mpa]K(PEG4)G[Trp(5-F)][Trp(5-F)]DHY[αMeP]C-NH2; linker 1-10 via mXylylene): the Activity entry in [7] is given as “Non-Toxic”. The same compound had a negative logarithm of the Ki (pKi) in data set [3] of 7.97. Moreover, in data set [8], the EC50 result is given as “Non-Toxic”.
For the compound `COCCOCCOCCOCCC(=O)NCCCC[C@@H]1NC(=O)CCSCc2cccc(c2)CSC[C@@H](C(N)=O)NC(=O)[C@]2(C)CCCN2C(=O)[C@H](Cc2ccc(O)cc2)NC(=O)[C@H](Cc2cnc[nH]2)NC(=O)[C@H](CC(=O)O)NC(=O)[C@H](Cc2c[nH]c3ccc(F)cc23)NC(=O)[C@H](Cc2c[nH]c3ccc(F)cc23)NC(=O)CNC1=O` ([Mpa]K(X2)G[Trp(5-F)][Trp(5-F)]DHY[αMeP]C-NH2; linker 1-10 via mXylylene), the Activity result in data set [7] is “Non-Toxic”. Besides, the remaining at 1 h, 100 µM in data set [1] came out at 96.3%; in data set [2] it was 98.6%; at Chymotrypsinogen A, 39.5%; in data set [6], 96%. The same compound showed a negative logarithm of the Ki (pKi) in data set [3] of 8.03. Further, the EC50 result in data set [8] is “Non-Toxic”. For the same compound, the half-life at 100 µM in data set [4] is > 6 h.
Turning to `CO[C@H](C)[C@@H]1NC(=O)[C@@H]2CCCN2C(=O)[C@H](Cc2c[nH]c3ccc(F)cc23)NC(=O)[C@H](Cc2c[nH]c3ccc(F)cc23)NC(=O)CNC(=O)[C@H](CCCCN)NC(=O)CCSCc2cccc(c2)CSC[C@@H](C(N)=O)NC(=O)[C@]2(C)CCCN2C(=O)[C@H](Cc2ccc(O)cc2)NC1=O` ([Mpa]KG[Trp(5-F)][Trp(5-F)]PT(Me)Y[αMeP]C-NH2; linker 1-10 via mXylylene), the remaining at 1 h, 100 µM in data set [1] worked out at 56%; in data set [2], 99.5%; at Chymotrypsinogen A it was 91%; in data set [6], 1.2%. The pKi in data set [3] was 8.00. The half-life at 100 µM in data set [4] was found to be 1.03 h; in data set [5], 3.1 h.
Regarding `CCC[C@@H]1NC(=O)CCSCc2cccc(c2)CSC[C@@H](C(N)=O)NC(=O)[C@]2(C)CCCN2C(=O)[C@H](Cc2ccc(O)cc2)NC(=O)[C@H](Cc2cnc[nH]2)NC(=O)[C@H](CC(=O)O)NC(=O)[C@H](Cc2c[nH]c3ccc(F)cc23)NC(=O)[C@H](Cc2c[nH]c3ccc(F)cc23)NC(=O)CNC1=O` ([Mpa][Nva]G[Trp(5-F)][Trp(5-F)]DHY[αMeP]C-NH2; linker 1-10 via mXylylene), in data set [7], the Activity entry is on record as “Non-Toxic”. For the same compound, the figures for the pKi (in data set [3]; at PCSK9/LDLR) were 7.45 and 7.02, respectively. The pEC50 in data set [8] was 5.15.
For the compound `C[C@@]12CCCN1C(=O)[C@H](Cc1ccc(O)cc1)NC(=O)[C@H](Cc1cnc[nH]1)NC(=O)[C@H](CC(=O)O)NC(=O)[C@H](Cc1c[nH]c3ccc(F)cc13)NC(=O)[C@H](Cc1c[nH]c3ccc(F)cc13)NC(=O)CNC(=O)[C@H](CCCN)NC(=O)CCSCc1cccc(c1)CSC[C@@H](C(N)=O)NC2=O` ([Mpa][Orn]G[Trp(5-F)][Trp(5-F)]DHY[αMeP]C-NH2; linker 1-10 via mXylylene), the Activity entry in data set [7] was “Non-Toxic”. Besides, the values for the pKi (in data set [3]; at PCSK9/LDLR) were 7.84 and 6.88, respectively. The EC50 result in [8] is “Non-Toxic”.
Take `COc1ccc(C[C@@H]2NC(=O)[C@H](Cc3cnc[nH]3)NC(=O)[C@H](CC(=O)O)NC(=O)[C@H](Cc3c[nH]c4ccc(F)cc34)NC(=O)[C@H](Cc3c[nH]c4ccc(F)cc34)NC(=O)[C@@H](C)NC(=O)[C@H](CCCCC(=O)O)NC(=O)CCSCc3cccc(c3)CSCCNC(=O)[C@]3(C)CCCN3C2=O)cc1` (cyclo(DHY(Me)[αMeP][X1][Nle(6-COOH)][dA][Trp(5-F)][Trp(5-F)])): in data set [7], the Activity result is listed as “Non-Toxic”. The compound further had a negative logarithm of the Ki (pKi) in data set [3] of 7.07. Also, the EC50 entry in data set [8] is on record as “Non-Toxic”.
As for `COc1ccc(C[C@@H]2NC(=O)[C@H](Cc3cnc[nH]3)NC(=O)[C@H](CC(=O)O)NC(=O)[C@H](Cc3c[nH]c4ccc(F)cc34)NC(=O)[C@H](Cc3c[nH]c4ccc(F)cc34)NC(=O)[C@@H](C)NC(=O)[C@H](CCCCCC(=O)O)NC(=O)CCSCc3cccc(c3)CSCCNC(=O)[C@]3(C)CCCN3C2=O)cc1` (cyclo([Asu][dA][Trp(5-F)][Trp(5-F)]DHY(Me)[αMeP][X1])), in data set [7], the Activity result is recorded as “Non-Toxic”. For the same compound, the negative-log Ki (pKi) in data set [3] was 7.09. The EC50 result in data set [8] was “Non-Toxic”.

The values above are taken from ChEMBL document CHEMBL4699634, “Series of Novel and Highly Potent Cyclic Peptide PCSK9 Inhibitors Derived from an mRNA Display Screen and Optimized via Structure-Based Design” (J Med Chem, 2020).
